Source: patent publication US20070218509A1, “Murine Living Tissue Model & UsesTthereof” (priority 2003, published 2007)

Tests used:
SP-1 papilloma model [1] = experiment: SP-1 papilloma three-dimensional model, area of cell cover (propidium iodide stained whole mounts); format: cell-based, mouse; settings: SP-1 model
Procedure: In summary the in vitro models were developed using contracted collagen gels which supported a layer of mouse tumour cells or corresponding “normal” epithelial cells. The collagen gel was comprised of type I collagen, isolated from rat tail tendon, contracted using primary mouse fibroblasts, which were isolated from the dermis of newborn (or embryonic) mice. The collagen gels contracted to a size approximately 1.5 cm in diameter and were seeded with a single cell suspension of mouse tumour or normal epithelial cells. The models were initially maintained as submerged cultures, which allowed the cells to adhere to the collagen gel and grow. The models may thereafter be raised to the air-liquid interface (semi-submerged culture) to promote cell differentiation and formation of tissue. […] Test agents can be added to the model system at different stages of tumour development. The models are directly imaged as whole mounts by fluorescent labelling of cells either with vital dyes or genetic markers or after fixation and staining.
In more detail, the collagen gel, described below, which supports the layer of epithelial cells (BalbMK (Weissman and Aaronson 1985), SP-1 (Strickland et al. 1988) or T52 Hufos (Greenhalgh and Yuspa 1988) in the prototype models), was contracted using dermal fibroblasts isolated from newborn mouse skin. The epidermis and dermis were separated from each other following an overnight digestion with trypsin at 4° C. The dermal tissue washed in sterile PBS, dissected-into very small pieces, suspended in 3-5 ml of MEM culture media and the slurry seeded into a 75 cm^2 plastic culture flask. This tissue was cultured without disturbance until the tissue pieces had adhered to the plastic flask. Fresh MEM (Minimum Essential Medium) supplemented with 10% foetal calf serum, 1% L-glutamine, 100 U/ml penicillin and 100 μg/ml streptomycin was added to the flask at this time. Fibroblast cell outgrowth from the dermal tissue explants was observed after several days. The excess tissue was removed and the fibroblast cells cultured to confluence. […]

[2] = system: T52 Hufos invasive tumour model; experiment: T52 Hufos invasive tumour three-dimensional model, area of cell cover; format: cell-based, mouse; settings: 10^−7M RA, 10 day culture period (FIG. 7)
Description: Hufos invasive tumour model over a 10 day culture period. In summary the in vitro models were developed using contracted collagen gels which supported a layer of mouse tumour cells or corresponding “normal” epithelial cells. The collagen gel was comprised of type I collagen, isolated from rat tail tendon, contracted using primary mouse fibroblasts, which were isolated from the dermis of newborn (or embryonic) mice. The collagen gels contracted to a size approximately 1.5 cm in diameter and were seeded with a single cell suspension of mouse tumour or normal epithelial cells. The models were initially maintained as submerged cultures, which allowed the cells to adhere to the collagen gel and grow. The models may thereafter be raised to the air-liquid interface (semi-submerged culture) to promote cell differentiation and formation of tissue. […] Test agents can be added to the model system at different stages of tumour development. The models are directly imaged as whole mounts by fluorescent labelling of cells either with vital dyes or genetic markers or after fixation and staining. In more detail, the collagen gel, described below, which supports the layer of epithelial cells (BalbMK (Weissman and Aaronson 1985), SP-1 (Strickland et al. 1988) or [MUT] Hufos (Greenhalgh and Yuspa 1988) in the prototype models), was contracted using dermal fibroblasts isolated from newborn mouse skin. […]

SP-1 cells = experiment: Growth curves of SP-1 cells in monolayer culture; format: cell-based; settings: Mus musculus, 240 h; SP-1 monolayer culture, 10 days in culture, 10^−7M RA; read-out: inhibition of the log phase of growth
SP-1 papilloma model [3] = experiment: SP-1 papilloma model, cell killing (H & E stained paraffin sections); format: cell-based, mouse; settings: SP-1 model
Procedure: (§1) FIG. 10: Treatment of models with the anti-tumour drug cisplatin. H & E stained paraffin sections (×400 magnification) of SP-1 “papilloma” model (A, C and E) and T52-Hufos “invasive tumour” model (B, D and F). Shown are (A and B) untreated models (without cisplatin), (C and D) models treated with 50 μM cisplatin and (E and F) models treated with 500 μM cisplatin.
(§2) Cell models were harvested at appropriate time intervals and fixed overnight, at room temperature in a solution of buffered formalin. A small piece of the model was removed and embedded in paraffin wax. Sections were cut and mounted onto glass slides and stained with haematoxylin and eosin (H & E stain). The remainder of the model washed in PBS (phosphate buffered saline), permeabilised with Triton X-100 and stained with propidium iodide (PI). The washed models were stored thereafter in the dark at 4° C. and maintained their fluorescence for several weeks. Whole mounts of the PI stained models were analysed using fluorescent microscopy through coverslips applied directly to the surface of the tissue.

[4] = system: T52 Hufos invasive tumour model; experiment: T52 Hufos invasive tumour model, cell killing (H & E stained paraffin sections); format: cell-based, mouse
Procedure: as §1, §2

[5] = higher cisplatin concentration (500 μM, FIG. 10)
[6] = lower cisplatin concentration (50 μM, FIG. 10)

SMILES	effect on area of cell cover (SP-1 papilloma model [1]; 10^−6M RA (highest concentration studied), day 8 and day 10 (FIG. 6))	effect on area of cell cover (SP-1 papilloma model [1]; 10^−7M RA, vs untreated controls, time course to day 12 (FIG. 5))	degree of growth inhibition, concentration dependence (SP-1 papilloma model [1]; RA at 10^−6M, 10^−7M and 10^−8M (FIG. 6))	effect on area of cell cover [2]	inhibition at 0.1 µM (SP-1 cells) [%]	cell killing (SP-1 papilloma model [3]; [5])	cell killing (SP-1 papilloma model [3]; [6])	cell killing [4, 5]	cell killing [4, 6]
CC1=C(/C=C/C(C)=C/C=C/C(C)=C/C(=O)O)C(C)(C)CCC1 [RA, All-trans-Retinoic acid]	marked effect	modest effect with less cell cover than the corresponding untreated controls	concentration dependent	no effect	46				
N.N.[Cl][Pt][Cl] [cisplatin]						extensive cell death	evidence of cell killing	extensive cell death	evidence of cell killing
